In brackets after ≈: the same amount, converted by molar mass.
Assays:
[1] = DPPH free radical scavenging assay; details: DPPH 0.004% w/v in methanol, absorbance 515 nm, 16 min, three replicates
Method: The antioxidant activity of the extract was determined at the Regional Center for Mycology and Biotechnology (RCMB) at Al-Azhar University by the DPPH free radical scavenging assay in triplicate, and average values were considered.
Freshly prepared (0.004% w/v) methanol solution of 2,2-diphenyl-1-picrylhydrazyl (DPPH) radical was prepared and stored at 10 °C in the dark. A methanol solution of the test compound was prepared. About 40 uL aliquot of the methanol solution was added to 3 mL of DPPH solution. Absorbance measurements were recorded immediately with a UV-visible spectrophotometer (Milton Roy, Spectronic 1201). The decrease in absorbance at 515 nm was determined continuously, with data being recorded at 1 min intervals until the absorbance stabilized (16 min). The absorbance of the DPPH radical without antioxidant (control) and the reference compound ascorbic acid were also measured. All the determinations were performed in three replicates and averaged. The percentage inhibition (PI) of the DPPH radical was calculated according to the formula:PI = [{(AC − AT)/AC} × 100] where AC = absorbance of the control at t = 0 min and AT = absorbance of the sample + DPPH at t = 16 min. A 50% inhibitory concentration (IC50) or the concentration required for 50% DPPH radical scavenging activity was calculated.

[2] = test system: Syncephalastrum racemosum; test: Antifungal screening, diffusion agar technique; type: cell-based; details: RCMB016001; Syncephalastrum racemosum (RCMB 016001); well 6.0 mm, 100 μL tested; three replicates; ketoconazole 100 μg/mL
Method: (§1) The complexes were tested in vitro using a diffusion agar technique; well diameter: 6.0 mm (100 μL tested) on four fungi (Aspergillus fumigatus (RCMB 002008), Candida albicans (RCMB 005003 (1) ATCC 10231), Cryptococcus neoformas (RCMB 0049001) and Syncephalastrum racemosum (RCMB 016001 (1)). The positive control was a fungicide (ketoconazole, 100 μg/mL) as well as four bacteria, two Gram-positive strains (Staphylococcus aureus (ATCC 25923) and Bacillus subtilis (RCMB 015 (1) NRRL B-543)), and two Gram-negative strains (Escherichia coli (ATCC 25922) and Proteus Vulgaris (RCMB 004 (1) ATCC 13315)). The positive control was Streptococcus (gentamycin, 4 μg/mL). The inhibitory activity of a compound against an organism is indicated by a clear area around the disc.

Candida albicans = test: Antifungal screening, diffusion agar technique; type: cell-based; details: ATCC10231; Candida albicans (ATCC 10231); well 6.0 mm, 100 μL tested; three replicates; ketoconazole 100 μg/mL
Method: as §1

Aspergillus fumigatus = test: Antifungal screening, diffusion agar technique; type: cell-based; details: RCMB002008; Aspergillus fumigatus (RCMB 002008); well 6.0 mm, 100 μL tested; three replicates; ketoconazole 100 μg/mL
Method: as §1

Cryptococcus neoformas = test: Antifungal screening, diffusion agar technique; type: cell-based; details: RCMB0049001; Cryptococcus neoformas (RCMB 0049001); well 6.0 mm, 100 μL tested; three replicates; ketoconazole 100 μg/mL
Method: as §1

[3] = test system: A-549 cells (human lung cancer cell line); test: Cytotoxicity against A-549 cells (crystal violet colorimetric viability, 72 h); type: cell-based; details: A-549 human lung cancer cell line, 72 h exposure, average of three independent experiments
Method: Cancer is a type of malignant disease in which a group of cells appears to grow in an irregular pattern. The only way to treat this is through surgical intervention or chemotherapy, both of which have negative side effects. Although platinum-based complexes such as cis-platin have been used to treat cancer, it is not effective, so in vitro tests for complexes of manganese, cobalt, copper, chromium, and palladium were conducted against two cancer lines, respectively. A-549 and MRC-5 cells were used as test subjects for the cytotoxic activity of Schiff base and aminopyrimidyl complexes in the concentration range of […]. […] As the concentration of the complexes increased, cell viability decreased (Figure 10).
Figure 10 (a) A-549. The dose-response curves of the cytotoxicity of compounds (1–6). Cells were exposed to different concentrations of the compounds for 72 h. Cell viability was determined by a colorimetric method. (b) MRC-5cell lines. The dose-response curves of the cytotoxicity of compounds (1–6) Cells were exposed to different concentrations of the compounds for 72 h. Cell viability was determined by a colorimetric method.
A-549 cells (human Lung cancer cell line) were obtained from VACSERA Tissue Culture Unit.
It is composed of 0.5% (w/v) crystal violet and 50% methanol then made up to volume with ddH2O and filtered through a Whatmann No.1 filter paper. […]

Bacillus subtilis = test: Antibacterial screening, diffusion agar technique; type: cell-based; details: Bacillus subtilis (NRRL B-543), Gram-positive; well 6.0 mm, 100 μL tested; three replicates; gentamycin 4 μg/mL
Method: as §1

Staphylococcus aureus = test: Antibacterial screening, diffusion agar technique; type: cell-based; details: Staphylococcus aureus (ATCC 25923), Gram-positive; well 6.0 mm, 100 μL tested; three replicates; gentamycin 4 μg/mL
Method: as §1

Proteus vulgaris = test: Antibacterial screening, diffusion agar technique; type: cell-based; details: Proteus vulgaris (ATCC 13315), Gram-negative; well 6.0 mm, 100 μL tested; three replicates; gentamycin 4 μg/mL
Method: as §1

Escherichia coli = test: Antibacterial screening, diffusion agar technique; type: cell-based; details: Escherichia coli (ATCC 25922), Gram-negative; well 6.0 mm, 100 μL tested; three replicates; gentamycin 4 μg/mL
Method: as §1

In the case of `O=C1O[C@H]([C@@H](O)CO)C(O)=C1O` [Ascorbic acid, reference compound], the “IC50 (antioxidant activity, DPPH radical scavenging)” value [1] is reported as 10210 ± 770 µg/mL (≈ 58 mM).
With `CC(=O)N1CCN(c2ccc(OCC3COC(Cn4ccnc4)(c4ccc(Cl)cc4Cl)O3)cc2)CC1` (stereo not shown) [Ketoconazole, reference compound] the zone of inhibition at 100 µg/mL [2] was 15.3 mm, the zone of inhibition at 100 µg/mL (Candida albicans) was 20.4 mm and the zone of inhibition at 100 µg/mL (Aspergillus fumigatus) was 17.4 mm. For the same compound, the zone of inhibition at 100 µg/mL (Cryptococcus neoformas) was 24.9 mm.
For `N.N.[Cl][Pt][Cl]` [cisplatin, reference compound], the “IC50 Value” [3] was 7.11 µg/mL.
For Gentamycin [reference compound], the “Mean Zone of Inhibition” value (Bacillus subtilis) was 25.93 mm, the “Mean Zone of Inhibition” value (Staphylococcus aureus) was 24.33 mm and the “Mean Zone of Inhibition” value (Proteus vulgaris) was 25.20 mm. For the same compound, the “Mean Zone of Inhibition” value (Escherichia coli) was 29.83 mm.

Source: PMC10058022, “Physico-Chemical Study of Mn(II), Co(II), Cu(II), Cr(III), and Pd(II) Complexes with Schiff-Base and Aminopyrimidyl Derivatives and Anti-Cancer, Antioxidant, Antimicrobial Applications” (Molecules, 2023)
